{"source": "patent US5750405A", "about": "“Method for the detection for protein” (priority 1996, dated 1998)", "key": {"albumin [1]": {"system": "albumin", "conditions": "cited from earlier work"}, "Urinary proteins": {"system": "Urinary proteins", "experiment": "DIDNTB reagent strip protein response, Example I, other urinary proteins", "format": "binding", "conditions": "additive 6 mM; vs control formula lacking additive; negative = loss of protein response", "text": "(§1) The DIDNTB protein reagent was made from two saturations of Alhstrom 204 filter paper in which the first saturation was made with an aqueous ethanol mix containing tartaric acid as buffer and methyl red as background dye. The pH was adjusted to 2.1. The second saturation was with a toluene/tetrahydrofuran mix containing the DIDNTB indicator dye and Lutanol M40 (a polyvinylmethylether) as a color enhancer polymer.\n(§2) The mix solutions were used to saturate the filter paper and the paper was dried at 105° C. for 7 minutes after each saturation. The resultant dry reagents were processed into reagent strips which were tested on a Clinitek-200+ reflectance spectrophotometer from Bayer Diagnostics after dipping into urine containing 0 or 30 mg/dL human serum albumin or 40 mg/dL of another urinary protein. The particulars of each dip solution are set out in Table 3.\nPrior to the addition of HSA, the urine sample was filtered through an ultrafiltration membrane having a 10 KDa (kilodalton) molecular weight cut-off to remove naturally occurring proteins. The total protein in the urine sample was determined using an immunological HSA assay and the Coomassie Brilliant Blue (CBB) method described by Perini et al as cited above to screen over 175 clinical samples to provide specimens lacking albumin but containing other urine protein. […] These urines were pooled and diluted with negative urine to 40 mg/dL by the CBB method and less than 1.2 mg/dL by immunological HSA assay. The reagent response was measured on the […]-200+ instrument as the result of 1000×% Reflectance @ 610 nm/% reflectance @ 690 nm. The difference between negative and protein containing urines was taken as the protein response. The data generated by this experiment are set out in Table 1 in which the protein response of control formula lacking polymer or substituted alkane additive is compared to the formulas containing polymer or alkane to determine the % change in response. Negative numbers indicate greater loss of protein response. […]"}, "[2]": {"biological_target": "human serum albumin (HSA) (Homo sapiens, UniProt P02768)", "sequence (P02768 25-609)": "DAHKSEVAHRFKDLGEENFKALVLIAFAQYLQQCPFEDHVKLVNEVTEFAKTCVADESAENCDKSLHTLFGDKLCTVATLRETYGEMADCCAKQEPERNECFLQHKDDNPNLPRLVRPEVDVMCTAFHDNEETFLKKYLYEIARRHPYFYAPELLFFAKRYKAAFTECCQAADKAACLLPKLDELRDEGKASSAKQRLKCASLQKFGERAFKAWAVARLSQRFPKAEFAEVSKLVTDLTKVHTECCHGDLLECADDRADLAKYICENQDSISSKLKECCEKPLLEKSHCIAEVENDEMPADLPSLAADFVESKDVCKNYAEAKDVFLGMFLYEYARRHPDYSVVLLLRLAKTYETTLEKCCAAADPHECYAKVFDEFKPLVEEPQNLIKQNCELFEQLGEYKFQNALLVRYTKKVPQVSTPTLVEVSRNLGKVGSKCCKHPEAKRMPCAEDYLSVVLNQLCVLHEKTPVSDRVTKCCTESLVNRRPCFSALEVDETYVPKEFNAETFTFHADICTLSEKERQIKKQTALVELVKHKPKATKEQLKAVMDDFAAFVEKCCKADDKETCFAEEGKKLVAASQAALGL", "experiment": "DIDNTB reagent strip protein response, Example I, HSA", "conditions": "for protein response: Example I, 6 mM of substituted alkane; for % change in response, HSA 30 mg/dL: additive 6 mM, vs control formula lacking additive, negative = loss of protein response", "text": "as §1, §2\nPrior to the addition of HSA, the urine sample was filtered through an ultrafiltration membrane having a 10 KDa (kilodalton) molecular weight cut-off to remove naturally occurring proteins. The total protein in the urine sample was determined using an immunological HSA assay and the Coomassie Brilliant Blue (CBB) method described by Perini et al as cited above to screen over 175 clinical samples to provide specimens lacking albumin but containing other urine protein. […] These urines were pooled and diluted with negative urine to 40 mg/dL by the CBB method and less than 1.2 mg/dL by immunological HSA assay. The reagent response was measured on the […]-200+ instrument as the result of 1000×% Reflectance @ 610 nm/% reflectance @ 690 nm. The difference between negative and protein containing urines was taken as the protein response. The data generated by this experiment are set out in Table 1 in which the protein response of control formula lacking polymer or substituted alkane additive is compared to the formulas containing polymer or alkane to determine the % change in response. Negative numbers indicate greater loss of protein response.\nThe HSA response in the presence of these additives was compared to the response for other urinary proteins such as Tamm Horsefall glycoprotein, Bence-Jones protein, α-1-microglobin, hemoglobin and various low molecular weight protein fragments. The additives were used at a 0.1% (w/w) concentration to allow a measurable HSA response in all cases. The 0.1% concentration amounts to […] concentration of additive and is in excess of the 4.4 μM concentration of the proteins tested."}, "albumin [3]": {"system": "albumin", "conditions": "Coomassie Brilliant Blue; cited from earlier work"}}, "data": [{"smiles": "CCCCCCCCCCCCCCCC(=O)O", "note": "[Palmitate, palmitic acid]", "values": [{"measurement": "effect on the binding of phenol red to albumin", "setting": "albumin [1]", "value": "modest inhibitory effects"}]}, {"smiles": "CCCCCCCCCC(=O)O", "note": "[Decanoic acid]", "values": [{"measurement": "% change in response, Urinary proteins 40 mg/dL", "setting": "Urinary proteins", "value": 2, "unit": "%"}, {"measurement": "protein response", "setting": "[2]", "value": "did not affect the protein response"}, {"measurement": "% change in response, HSA 30 mg/dL", "setting": "[2]", "value": 7, "unit": "%"}]}, {"smiles": "CCCCCCCCCCO", "note": "[Decanol]", "values": [{"measurement": "% change in response, Urinary proteins 40 mg/dL", "setting": "Urinary proteins", "value": 8, "unit": "%"}, {"measurement": "protein response", "setting": "[2]", "value": "did not affect the protein response"}, {"measurement": "% change in response, HSA 30 mg/dL", "setting": "[2]", "value": 3, "unit": "%"}]}, {"smiles": "CCCCCCCCCCCCCCCC(=O)O", "note": "[Hexadecanoic acid]", "values": [{"measurement": "% change in response, Urinary proteins 40 mg/dL", "setting": "Urinary proteins", "value": 1, "unit": "%"}]}, {"smiles": "CCCCCCCCCCCCOS(=O)(=O)[O-].[Na+]", "note": "[sodium dodecyl sulfate]", "values": [{"measurement": "specificity of the test for albumin", "setting": "albumin [3]", "value": "decreased the specificity"}]}]}
